For series [1], the system named is zebrafish embryos. Briefly: Zebrafish toxicity: mortality rate. Type of series: in vivo, zebrafish (Danio rerio). As to the method: (§1) To investigate the toxicity of these four compounds, the heart rates and the mortality rates of zebrafish embryos were recorded (Table 2 and Table 3). The heart rate of zebrafish in the control group was 117 beats/min.
(§2) Using transgenic fli-1: enhanced GFP zebrafish embryos, we investigated the effects of all compounds on angiogenesis. Zebrafish embryos were generated by natural pairwise mating and raised at 28.5 °C in embryo water (0.2 g/L of Instant Ocean Salt in distilled water). At about 6 h post fertilization (hpf), the embryos were sorted in the 6-well plate (six embryos/well), removing dead and unhealthy embryos. Then the embryos were treated with the indicated concentrations of compounds which were added into embryo water. After incubation for 24 or 48 h, the embryos were anesthetized using 0.05% 2-phenoxyethanol in embryo water, quantified and photographed.

For the next series, the system named is LO2. The series can be described thus: MTT assay, cytotoxicity. Type of series: cell-based. Conditions: Homo sapiens, L02, 24 h, read-out: IC50, inhibition of cell proliferation. How it is done: (§3) HepG2, HCT116, HeLa and LO2 cell lines were cultured in DMEM containing 10% fetal bovine serum (FBS), 100 IU/mL penicillin and 100 µg/mL streptomycin; A549 and K562 cell lines were cultured in RPMI 1640 medium containing 10% fetal bovine serum (FBS), 100 IU/mL penicillin and 100 µg/mL streptomycin; Human umbilical vein endothelial cells (HUVECs) were cultured on gelatin-coated culture flasks in M-199 medium with 20% fetal bovine serum (FBS), 2 ng/mL VEGF, 10 ng/mL basic FGF, 100 IU/mL penicillin, and 100 μg/mL streptomycin; all of them were obtained from the American Type Culture Collection (ATCC) and all cell lines were incubated in an atmosphere of 5% CO2 at 37 °C.
(§4) Cells were treated with various concentrations of compound in 96-well culture plates for 24 h in final volumes of 200 μL (5 × 10^3 cells/well). Then 20 μL of MTT solution (5 mg/mL) was added to each well, and cells were incubated for an additional 3 h. Then the medium was carefully removed, and precipitates were dissolved in 150 μL of DMSO, shaken mechanically for 30 min, and then absorbance values at a wavelength of 570 nm were taken on a spectrophotometer (Molecular Devices, Sunnyvale, CA, USA). Values were calculated using percentage of growth versus untreated control. The IC50 was defined as the concentration that caused 50% inhibition of cell proliferation, and was calculated by SAS statistical software.

A further series concerns A549. Briefly: MTT assay, cell proliferation. Type of series: cell-based. Conditions: Homo sapiens, 24 h, read-out: IC50, inhibition of cell proliferation. How it is done: as §3, §4
The test system of another series is HCT116. The series can be described thus: MTT assay, cell proliferation. Format: cell-based. Conditions: Homo sapiens, HCT-116, 24 h, read-out: IC50, inhibition of cell proliferation. As to the method: as §3, §4
A general note: Tetrazolium dyes change colour on reduction, which living cells bring about.

In another series the test system is HeLa. The series can be described thus: MTT assay, cell proliferation. Type of series: cell-based. The settings on record: Homo sapiens, 24 h, read-out: IC50, inhibition of cell proliferation. As to the method: as §3, §4
A further series relates to HepG2. The series can be described thus: MTT assay, cell proliferation. Format: cell-based. The settings on record: Homo sapiens, 24 h, read-out: IC50, inhibition of cell proliferation. As to the method:
as §3, §4

The subject of another series is K562. Briefly: MTT assay, cell proliferation. Format: cell-based. Conditions: Homo sapiens, 24 h, read-out: IC50, inhibition of cell proliferation. How it is done:
as §3, §4

Another series concerns HUVECs. Briefly: Matrigel tube formation assay. Format: cell-based, Human. Conditions: Homo sapiens, HUVEC, 0.5 μM, 6 h, vs control, read-out: inhibitory rates of tube formation. How it is done:
In the later stages of angiogenesis, tube formation of ECs is also an important process. Thus, a Matrigel tube formation assay was applied to assess the ability of HUVECs to form ECs vascular structures which is believed to be significant in new vessel formation.
Figure 4 Effects on the HUVECs tube formation. (I) HUVECs (1 × 10^4 cells) suspended in DMEM containing each compound (0.5 or 1 or 2 μM) were added to the Matrigel. Control was treated with DMEM alone. After incubation for 6 h at 37 °C, capillary networks were photographed and quantified (Olympus CKX41, magnification: 100×); (II) Rates of the HUVECs tube formation. The number of intact tubes was counted in five randomly chosen regions and expressed as the percentage of the control. The results were expressed as mean ±SD. ** p < 0.01; *** p < 0.005 compared with control.
Matrigel was dissolved at 4 °C overnight. Each well of prechilled 96-well plates was coated with 50 μL of Matrigel, incubated and solidified at 37 °C for 45 min. After removing the unsolidified fluid, HUVECs at the density of 1 × 10^4 were cultured in DMEM containing the indicated concentrations of compounds for 6 h. Controls were treated with the DMEM alone. Images were digitally captured and quantitatively analyzed (Olympus). The numbers and line lengths of the circular tubules formed by the cells were calculated manually. The values were observed from five randomly selected fields.

The subject of another series is HUVEC. Briefly: MTT assay, cell proliferation. Type of series: cell-based, Human. Conditions: Homo sapiens, 24 h, read-out: IC50, inhibition of cell proliferation. How it is done:
Inhibiting the proliferation of ECs is another important strategy for antiangiogenesis. […] As the exposure time of these derivatives was 24 h in the migration assay and 6 h in the tube formation assay, the effect of the incubation for 24 h in the presence of these compounds on HUVECs proliferation was then tested. Cell viability was assessed by the MTT method. We can see from Table 4 that these compounds had different antiproliferative activities.
as §3, §4

The test system of series [2] is transgenic fli-1: enhanced GFP zebrafish embryos. Briefly: Zebrafish embryo assay: antiangiogenic effects. Type of series: in vivo, zebrafish (Danio rerio). The settings on record: for inhibition in vivo at 1 µM / inhibition in vivo at 2.5 µM / inhibition in vivo at 10 µM: Danio rerio. As to the method: As stated previously, zebrafish is regarded as a powerful tool in the study of human diseases. […] In this study, all GA derivatives were incubated with the transgenic friend leukemia integration-1 (fli-1): enhanced GFP zebrafish embryos which carried a fli-1 promoter which can drive the expression of GFP in the whole endothelium.
Figure 1 Effects on neovascularization in zebrafish embryos. The transgenic fli-1: enhanced GFP zebrafish embryos in embryo water (0.2 g/L of instant ocean salt in distilled water) incubated with 1 μM of compounds at 6 h postfertilization (hpf) for 24 h. Zebrafish embryos were imaged (Imager.Z1, magnification: left, 40×; right, 100×).
Using transgenic fli-1: enhanced GFP zebrafish embryos, we investigated the effects of all compounds on angiogenesis. […] At about 6 h post fertilization (hpf), the embryos were sorted in the 6-well plate (six embryos/well), removing dead and unhealthy embryos. Then the embryos were treated with the indicated concentrations of compounds which were added into embryo water. After incubation for 24 or 48 h, the embryos were anesthetized using 0.05% 2-phenoxyethanol in embryo water, quantified and photographed.

Series [3] concerns zebrafish embryos. Briefly: Zebrafish toxicity: heart rates. Type of series: in vivo. The settings on record: transgenic fli-1:enhanced GFP (fli-1:EGFP) line, zebrafish, in vivo. As to the method: as §1, §2
Setting [4] is: 2.5 µM and 10 µM, zebrafish embryos.
[5] abbreviates: 1 μM, zebrafish embryos, read-out: antiangiogenic rates.
Where [6] appears, read: 1 μM, zebrafish embryos, vs vehicle (0.05% DMSO), read-out: Anti-angiogenic phenotype.
Setting [7] is: 2.5 μM, zebrafish embryos, vs vehicle (0.05% DMSO), read-out: Anti-angiogenic phenotype.
Where [8] appears, read: zebrafish embryos, vs vehicle (0.05% DMSO), read-out: Anti-angiogenic phenotype.

Where two headings read alike, the source gives them in different places.

As to `CC(=O)Nc1ccc(OC(=O)/C(C)=C\CC23OC(C)(C)C4CC(C=C5C(=O)c6c(O)c7c(c(CC=C(C)C)c6OC542)OC(C)(CCC=C(C)C)C=C7)C3=O)cc1` (stereo not drawn) [Compound 4, 4-Acetamidephenyl gambogate], the Mortality rates in the series with zebrafish embryos [1] (1 μM, zebrafish) is 0%; with zebrafish embryos [1] (setting [4]) it was “less than 20%”; in the series with zebrafish embryos [1] (2.5 μM, zebrafish), 6.7 ± 5.77 %; in the series on zebrafish embryos [1] (10 μM, zebrafish), 20 ± 0.00 %. Moreover, the IC50 in the series with LO2 was 830 ± 30 nM; with A549 it was 950 ± 90 nM; in the series with HCT116, 480 ± 40 nM; in the series on HeLa it was 1340 ± 40 nM; with HepG2, 1100 ± 60 nM; in the series on K562, 410 ± 20 nM. For the same compound, in the series on HUVEC, the IC50 was found to be 1170 ± 120 nM. In addition, the inhibition at 0.5 µM with HUVECs was found to be 43.5%. In addition, the inhibition in vivo at 1 µM in series [2] (setting [5]) and in series [2] (setting [6]) was 25 to 50% in each case. Moreover, the inhibition in vivo at 2.5 µM in series [2] (setting [7]) is 50 to 75%. Moreover, the inhibition in vivo at 10 µM in [2] (setting [8]) is over 75%. The “Heart rates of zebrafish” value turned out to be 80 ± 5.31 beats/min with zebrafish embryos [3] (2.5 μM) and 54 ± 4.00 beats/min in the series on zebrafish embryos [3] (10 μM).
As for `CC(C)=CCCC1(C)C=Cc2c(O)c3c(c(CC=C(C)C)c2O1)OC12C(=CC4CC1C(C)(C)OC2(C/C=C(/C)C(=O)Oc1ccc(Cl)cc1C=O)C4=O)C3=O` (stereo not drawn) [Compound 23, 4-Chloro-2-formylphenyl gambogate], the IC50 in the series with LO2 stood at 31700 ± 1940 nM; in the series with A549, 73500 ± 3400 nM; with HCT116, 15900 ± 1460 nM; in the series on HeLa it was 61600 ± 5860 nM; in the series on HepG2, 20000 ± 2890 nM; in the series on K562 it was 15400 ± 1350 nM. Further, in the series with HUVEC, the IC50 was determined as 32000 ± 1760 nM. Further, the antiangiogenic rates result in series [2] (1 μM, zebrafish embryos) is “inactive”. Further, the inhibition in vivo at 10 µM in series [2] (setting [8]) lay within 25 to 50%.
`CCCC(=O)Nc1ccc(OC(=O)/C(C)=C\CC23OC(C)(C)C4CC(C=C5C(=O)c6c(O)c7c(c(CC=C(C)C)c6OC542)OC(C)(CCC=C(C)C)C=C7)C3=O)cc1` (stereo not drawn) [Compound 26, 4-Butyramidophenyl gambogate]: the IC50 with LO2 was 4220 ± 500 nM; with A549, 4000 ± 800 nM; with HCT116, 1730 ± 440 nM; in the series with HeLa it was 4460 ± 570 nM; with HepG2, 1720 ± 120 nM; with K562, 770 ± 30 nM. Further, the IC50 in the series on HUVEC amounted to 2980 ± 100 nM. Moreover, the “antiangiogenic activities” value in [2] (2.5 μM, not enhanced greatly at 10 μM) was “moderate”. Also, the inhibition in vivo at 1 µM in series [2] (setting [5]) and in [2] (setting [6]) was 25 to 50% throughout. Further, the inhibition in vivo at 2.5 µM in [2] (setting [7]) was 25 to 50%. Besides, in series [2] (setting [8]), the inhibition in vivo at 10 µM was in the range of 25 to 50%.
Consider `CC(C)=CCCC1(C)C=Cc2c(O)c3c(c(CC=C(C)C)c2O1)OC12C(=CC4CC1C(C)(C)OC2(C/C=C(/C)C(=O)Nc1nccs1)C4=O)C3=O` (stereo not drawn) [Compound 32, Thiazol-2-gambogamide], for which the Mortality rates is 0% in the series on zebrafish embryos [1] (1 μM, zebrafish); “less than 20%” in the series on zebrafish embryos [1] (setting [4]); 6.7 ± 5.77 % in the series with zebrafish embryos [1] (2.5 μM, zebrafish); 16.7 ± 5.77 % in the series on zebrafish embryos [1] (10 μM, zebrafish). Besides, the IC50 in the series with LO2 amounted to 1700 ± 480 nM; in the series with A549, 740 ± 40 nM; with HCT116, 450 ± 10 nM; in the series on HeLa, 1080 ± 100 nM; in the series with HepG2, 810 ± 60 nM; in the series on K562, 400 ± 20 nM. For the same compound, in the series with HUVEC, the IC50 is 1090 ± 90 nM. In the series with HUVECs, the inhibition at 0.5 µM is 39.1%. Moreover, the inhibition in vivo at 1 µM in series [2] (setting [5]) and in [2] (setting [6]) was 25 to 50% throughout. Further, in series [2] (setting [7]), the inhibition in vivo at 2.5 µM was in the range of 50 to 75%. Moreover, the inhibition in vivo at 10 µM in [2] (setting [8]) was over 75%. Besides, the “Heart rates of zebrafish” value with zebrafish embryos [3] (2.5 μM) worked out at 60 ± 4.36 beats/min; in the series with zebrafish embryos [3] (10 μM) it was 54 ± 3.68 beats/min.

The record behind these values is article PMC6268492, “Synthesis and Antiangiogenic Activity of Novel Gambogic Acid Derivatives” (Molecules, 2012).
